Laboratory results taken from patent US12617779B2, “Self degradation-type CDK9 inhibitor prodrug and liposome encapsulating same” (Sumitomo Pharma Co., Ltd., priority 2021, dated 2026).

Legend:
[1] = Evaluation of conversion rate to active form in human plasma (Experimental Example 3); assay type: in vitro ADME; settings: human, 0.2 μmol/L
Method: (§1) For Example 1, Example 2, Example 3, Example 4, Example 5, Example 6, Comparative Example 3, Comparative Example 4, Comparative Example 6, Comparative Example 7, Comparative Example 8, Comparative Example 9, Comparative Example 10 and Comparative Example 12, the attrition rate of the test compound and the conversion rate of the test compound to Alvocidib in human plasma and BALB/c mouse plasma were calculated by the following method.
(§2) The test compound was added to human plasma or BALB/c mouse plasma at a concentration of 0.2 μmol/L, and incubated at 37° C. The peak areas of the test compound and Alvocidib in the sample were determined by LC-MS/MS after 0, 30 and 60 minutes for Example 1, Example 2, Example 3, Example 4, Example 5 and Example 6, and after 0, 60 and 120 minutes for Comparative Example 3, Comparative Example 4, Comparative Example 6, Comparative Example 7, Comparative Example 8, Comparative Example 9, Comparative Example 10 and Comparative Example 12, and the attrition rate of the test compound and the conversion rate of the test compound to Alvocidib were calculated by the following formula. Attrition rate of test compound (%):(peak area of test compound in sample/peak area of test compound in sample after 0 minute)×100 Conversion rate to Alvocidib (%):(peak area of Alvocidib in sample/peak area of Alvocidib in reaction solution containing 0.2 μmol/L Alvocidib)×100
(§3) The measurement conditions for LC-MS/MS are as follows. • HPLC: Prominence system (Shimadzu Corporation) • MS/MS: • Example 1, Example 2, Example 3, Example 4, Example 5, Example 6, Comparative Example 8 (mouse), Comparative Example 10 (mouse) and Comparative Example 12 (mouse) • QTRAP5500 (SCIEX) • Comparative Example 6, Comparative Example 7, Comparative Example 8 (human), Comparative Example 9, Comparative Example 10 (human) and Comparative Example 12 (human) • 4000 QTRAP (SCIEX) • column: • other than Example 3 and Example 4 • Cadenza CD-C18, 3 μm, 50×2 mm (Imtakt Corporation) • Example 3 and Example 4 • Kinetex C8, 2.6 μm, 50×2.1 mm (Phenomenex) • column temperature: 40° C. • mobile phase: • A: water containing 0.1% formic acid • B: acetonitrile containing 0.1% formic acid • A/B (min): • Example 1, Example 2, Example 5, Example 6, Comparative Example 8 (mouse), Comparative Example 10 (mouse) and Comparative Example 12 (mouse) • 90/10(0)→40/60(5.0)→10/90(5.1)→10/90(6.5)→90/10(6.6)→90/10(8.0) • Example 3 and Example 4 • 86/14(0)→86/14(3.5)→10/90(5.5)→10/90(6.5)→86/14(6.6)→86/14(9.5) • Comparative Example 6, Comparative Example 7, Comparative Example 8 (human), Comparative Example 9, Comparative Example 10 (human) and Comparative Example 12 (human) • 90/10(0)→10/90(2.5)→10/90(3.5)→90/10(3.6)→90/10(5.0) • flow rate: 0.4 mL/min • detection: ESI (positive mode) • injection: 1 to 5 μL

[2] = Evaluation of conversion rate to active form in buffer solution (Experimental Example 1); assay type: physicochemical
Method: For Examples 1 to 16 and Comparative Examples 1 to 14, the attrition rate of the test compound and the conversion rate of the test compound to Alvocidib in a buffer solution were calculated by the following method.
Examples 1 to 16 and Comparative Examples 1 to 14 were each left in buffer solutions adjusted to pH 5.0, 5.5, 6.0, 6.5, 7.0 and 7.4, respectively, at a concentration of 25 umol/L at 37° C. After 0, 0.5, 1, 2 and 3 hours, the residual rates of the compounds of Examples […] and the production rate of Alvocidib were determined by HPLC.
The buffer solutions used at each pH are as follows. • pH 5.0: 50 mM citrate buffer solution (pH 5.0) • pH 5.5: 50 mM citrate buffer solution (pH 5.5) • pH 6.0: 50 mM phosphate buffer solution (pH 6.0) • pH 6.5: 50 mM phosphate buffer solution (pH 6.5) • pH 7.0: 50 mM phosphate buffer solution (pH 7.0) • pH 7.4: 50 mM phosphate buffer solution (pH 7.4)
The measurement conditions for HPLC are as follows.

[3] = Evaluation of conversion rate to active form in BALB/c mouse plasma (Experimental Example 3); assay type: in vitro ADME; settings: BALB/c, mouse, 0.2 μmol/L
Method: as §1, §2, §3

CN1CC[C@H](c2c(O)cc(O)c3c(=O)cc(-c4ccccc4Cl)oc23)[C@H](OC(=O)CN)C1 [Comparative Example 8, reference compound]
Production rate (%) of Alvocidib ([1]; 0 min): 4%
Residual rate (%) of test compound ([1]; 0 min): 100%
Production rate (%) of Alvocidib ([1]; 60 min): 12%
Residual rate (%) of test compound ([1]; 60 min): 87%
Production rate (%) of Alvocidib ([1]; 120 min): 16%
Residual rate (%) of test compound ([1]; 120 min): 94%
Production rate of Alvocidib ([2]; pH5.0, 0 hr): 16.1%
Residual rate ([2]; pH5.0, 0 hr): 83.4%
Stability in buffer solution at pH 5 ([2]; pH 5, 37° C., up to 2 or 3 hours): unstable
Production rate of Alvocidib ([2]; pH5.0, 0.5 hr): 17.7%
Residual rate ([2]; pH5.0, 0.5 hr): 81.9%
Production rate of Alvocidib ([2]; pH5.0, 1 hr): 19.2%
Residual rate ([2]; pH5.0, 1 hr): 80.4%
Production rate of Alvocidib ([2]; pH5.0, 2 hr): 21.6%
Residual rate ([2]; pH5.0, 2 hr): 78.1%
Production rate of Alvocidib ([2]; pH5.0, 3 hr): 25.7%
Residual rate ([2]; pH5.0, 3 hr): 73.9%
Production rate of Alvocidib ([2]; pH5.5, 0 hr): 16.1%
Residual rate ([2]; pH5.5, 0 hr): 83.4%
Production rate of Alvocidib ([2]; pH5.5, 0.5 hr): 18.8%
Residual rate ([2]; pH5.5, 0.5 hr): 80.7%
Production rate of Alvocidib ([2]; pH5.5, 1 hr): 21.4%
Residual rate ([2]; pH5.5, 1 hr): 78.3%
Production rate of Alvocidib ([2]; pH5.5, 2 hr): 26.2%
Residual rate ([2]; pH5.5, 2 hr): 73.5%
Production rate of Alvocidib ([2]; pH5.5, 3 hr): 32.0%
Residual rate ([2]; pH5.5, 3 hr): 67.6%
Production rate of Alvocidib ([2]; pH6.0, 0 hr): 16.3%
Residual rate ([2]; pH6.0, 0 hr): 83.5%
Production rate of Alvocidib ([2]; pH6.0, 0.5 hr): 27.2%
Residual rate ([2]; pH6.0, 0.5 hr): 72.6%
Production rate of Alvocidib ([2]; pH6.0, 1 hr): 36.3%
Residual rate ([2]; pH6.0, 1 hr): 63.5%
Production rate of Alvocidib ([2]; pH6.0, 2 hr): 62.9%
Residual rate ([2]; pH6.0, 2 hr): 36.7%
Production rate of Alvocidib ([2]; pH6.0, 3 hr): 65.4%
Residual rate ([2]; pH6.0, 3 hr): 34.5%
Production rate of Alvocidib ([2]; pH6.5, 0 hr): 16.5%
Residual rate ([2]; pH6.5, 0 hr): 83.3%
Production rate of Alvocidib ([2]; pH6.5, 0.5 hr): 33.1%
Residual rate ([2]; pH6.5, 0.5 hr): 66.7%
Production rate of Alvocidib ([2]; pH6.5, 1 hr): 45.9%
Residual rate ([2]; pH6.5, 1 hr): 53.9%
Production rate of Alvocidib ([2]; pH6.5, 2 hr): 54.4%
Residual rate ([2]; pH6.5, 2 hr): 45.2%
Production rate of Alvocidib ([2]; pH6.5, 3 hr): 79.4%
Residual rate ([2]; pH6.5, 3 hr): 20.4%
Production rate of Alvocidib ([2]; pH7.0, 0 hr): 16.6%
Residual rate ([2]; pH7.0, 0 hr): 83.1%
Production rate of Alvocidib ([2]; pH7.0, 0.5 hr): 35.4%
Residual rate ([2]; pH7.0, 0.5 hr): 64.4%
Production rate of Alvocidib ([2]; pH7.0, 1 hr): 49.3%
Residual rate ([2]; pH7.0, 1 hr): 50.5%
Production rate of Alvocidib ([2]; pH7.0, 2 hr): 67.6%
Residual rate ([2]; pH7.0, 2 hr): 32.1%
Production rate of Alvocidib ([2]; pH7.0, 3 hr): 83.5%
Residual rate ([2]; pH7.0, 3 hr): 16.4%
Production rate of Alvocidib ([2]; pH7.4, 0 hr): 16.7%
Residual rate ([2]; pH7.4, 0 hr): 83.1%
Production rate of Alvocidib ([2]; pH7.4, 0.5 hr): 34.2%
Residual rate ([2]; pH7.4, 0.5 hr): 65.6%
Production rate of Alvocidib ([2]; pH7.4, 1 hr): 47.4%
Residual rate ([2]; pH7.4, 1 hr): 52.4%
Production rate of Alvocidib ([2]; pH7.4, 2 hr): 67.0%
Residual rate ([2]; pH7.4, 2 hr): 32.7%
Production rate of Alvocidib ([2]; pH7.4, 3 hr): 81.4%
Residual rate ([2]; pH7.4, 3 hr): 18.5%
Production rate (%) of Alvocidib ([3]; 0 min): 19%
Residual rate (%) of test compound ([3]; 0 min): 100%
Production rate (%) of Alvocidib ([3]; 60 min): 94%
Residual rate (%) of test compound ([3]; 60 min): 14%
Production rate (%) of Alvocidib ([3]; 120 min): 107%
Residual rate (%) of test compound ([3]; 120 min): 4%

CC(C)[C@H](N)C(=O)O[C@@H]1CN(C)CC[C@@H]1c1c(O)cc(O)c2c(=O)cc(-c3ccccc3Cl)oc12 [Comparative Example 10, reference compound]
Production rate (%) of Alvocidib ([1]; 0 min): 0%
Residual rate (%) of test compound ([1]; 0 min): 100%
Production rate (%) of Alvocidib ([1]; 60 min): 2%
Residual rate (%) of test compound ([1]; 60 min): 104%
Production rate (%) of Alvocidib ([1]; 120 min): 3%
Residual rate (%) of test compound ([1]; 120 min): 105%
Production rate of Alvocidib ([2]; pH5.0, 0 hr): 2.0%
Residual rate ([2]; pH5.0, 0 hr): 93.4%
Production rate of Alvocidib ([2]; pH5.0, 0.5 hr): 2.3%
Residual rate ([2]; pH5.0, 0.5 hr): 93.2%
Production rate of Alvocidib ([2]; pH5.0, 1 hr): 2.7%
Residual rate ([2]; pH5.0, 1 hr): 92.7%
Production rate of Alvocidib ([2]; pH5.0, 2 hr): 3.7%
Residual rate ([2]; pH5.0, 2 hr): 91.4%
Production rate of Alvocidib ([2]; pH5.0, 3 hr): 4.2%
Residual rate ([2]; pH5.0, 3 hr): 91.2%
Production rate of Alvocidib ([2]; pH5.5, 0 hr): 2.0%
Residual rate ([2]; pH5.5, 0 hr): 93.2%
Production rate of Alvocidib ([2]; pH5.5, 0.5 hr): 2.7%
Residual rate ([2]; pH5.5, 0.5 hr): 92.7%
Production rate of Alvocidib ([2]; pH5.5, 1 hr): 3.7%
Residual rate ([2]; pH5.5, 1 hr): 91.7%
Production rate of Alvocidib ([2]; pH5.5, 2 hr): 5.5%
Residual rate ([2]; pH5.5, 2 hr): 89.9%
Production rate of Alvocidib ([2]; pH5.5, 3 hr): 6.8%
Residual rate ([2]; pH5.5, 3 hr): 88.7%
Production rate of Alvocidib ([2]; pH6.0, 0 hr): 2.1%
Residual rate ([2]; pH6.0, 0 hr): 93.1%
Production rate of Alvocidib ([2]; pH6.0, 0.5 hr): 4.4%
Residual rate ([2]; pH6.0, 0.5 hr): 90.7%
Production rate of Alvocidib ([2]; pH6.0, 1 hr): 7.2%
Residual rate ([2]; pH6.0, 1 hr): 88.6%
Production rate of Alvocidib ([2]; pH6.0, 2 hr): 12.8%
Residual rate ([2]; pH6.0, 2 hr): 83.1%
Production rate of Alvocidib ([2]; pH6.0, 3 hr): 16.3%
Residual rate ([2]; pH6.0, 3 hr): 79.7%
Production rate of Alvocidib ([2]; pH6.5, 0 hr): 2.3%
Residual rate ([2]; pH6.5, 0 hr): 93.2%
Production rate of Alvocidib ([2]; pH6.5, 0.5 hr): 5.1%
Residual rate ([2]; pH6.5, 0.5 hr): 90.9%
Production rate of Alvocidib ([2]; pH6.5, 1 hr): 8.8%
Residual rate ([2]; pH6.5, 1 hr): 87.4%
Production rate of Alvocidib ([2]; pH6.5, 2 hr): 15.6%
Residual rate ([2]; pH6.5, 2 hr): 81.1%
Production rate of Alvocidib ([2]; pH6.5, 3 hr): 20.2%
Residual rate ([2]; pH6.5, 3 hr): 76.6%
Production rate of Alvocidib ([2]; pH7.0, 0 hr): 2.1%
Residual rate ([2]; pH7.0, 0 hr): 93.2%
Production rate of Alvocidib ([2]; pH7.0, 0.5 hr): 5.2%
Residual rate ([2]; pH7.0, 0.5 hr): 92.3%
Production rate of Alvocidib ([2]; pH7.0, 1 hr): 8.5%
Residual rate ([2]; pH7.0, 1 hr): 88.2%
Production rate of Alvocidib ([2]; pH7.0, 2 hr): 15.5%
Residual rate ([2]; pH7.0, 2 hr): 81.5%
Production rate of Alvocidib ([2]; pH7.0, 3 hr): 19.5%
Residual rate ([2]; pH7.0, 3 hr): 75.7%
Production rate of Alvocidib ([2]; pH7.4, 0 hr): 2.1%
Residual rate ([2]; pH7.4, 0 hr): 93.2%
Conversion to Alvocidib at pH 7.4 ([2]; pH 7.4, 37° C., up to 3 hours): slowly converted to Alvocidib
Production rate of Alvocidib ([2]; pH7.4, 0.5 hr): 4.6%
Residual rate ([2]; pH7.4, 0.5 hr): 92.2%
Production rate of Alvocidib ([2]; pH7.4, 1 hr): 7.5%
Residual rate ([2]; pH7.4, 1 hr): 89.3%
Production rate of Alvocidib ([2]; pH7.4, 2 hr): 13.3%
Residual rate ([2]; pH7.4, 2 hr): 82.9%
Production rate of Alvocidib ([2]; pH7.4, 3 hr): 17.1%
Residual rate ([2]; pH7.4, 3 hr): 78.4%
Production rate (%) of Alvocidib ([3]; 0 min): 1%
Residual rate (%) of test compound ([3]; 0 min): 100%
Production rate (%) of Alvocidib ([3]; 60 min): 5%
Residual rate (%) of test compound ([3]; 60 min): 84%
Production rate (%) of Alvocidib ([3]; 120 min): 6%
Residual rate (%) of test compound ([3]; 120 min): 89%
